The source made the active and inactive calls. The calls are words filed in the database; no cut-off is given here.

In data set [1] the test system is Hepatitis B virus. Description: Antiviral activity against HBV infected in ETV/3TC-resistant HepG2.A64 cells assessed as reduction in viral replication. Format: functional, organism-based.
Data set [2] deals with Hepatitis B virus. Nature of the data set: Antiviral activity against wild type HBV infected in HepG2.2.15 cells assessed as reduction in viral replication. Format: functional, organism-based.
Data set [3] has as its system Human immunodeficiency virus 1. Nature of the data set: Antiviral activity against HIV1 infected in C8166 cells assessed as reduction in viral replication measured after 3 days by ELISA. Format: functional, organism-based. The conditions noted are these: Human immunodeficiency virus 1, C8166, 72 h. For orientation: ELISA stands for enzyme-linked immunosorbent assay.

For data set [4], the system named is Human immunodeficiency virus 2. Nature of the data set: Antiviral activity against HIV2 infected in C8166 cells assessed as reduction in viral replication measured after 3 days by ELISA. The data set is classed as functional, organism-based. The conditions noted are these: Human immunodeficiency virus 2, C8166, 72 h.
In data set [5] the test system is Human immunodeficiency virus 2. Description: Antiviral activity against HIV2 infected in PBMCs assessed as reduction in viral replication measured after 7 days by ELISA. Format: functional, organism-based. The note with it: Human immunodeficiency virus 2, PBMC, 168 h.
The test system of data set [6] is Human immunodeficiency virus 1. Nature of the data set: Antiviral activity against HIV1 infected in PBMCs assessed as reduction in viral replication measured after 7 days by ELISA. The data set is classed as functional, organism-based. The conditions noted are these: Human immunodeficiency virus 1, PBMC, 168 h.
Data set [7] is described as follows: Inhibition of HIV1 Vif to human A3G protein-protein interaction.
Data set [8] deals with Human immunodeficiency virus 1. Nature of the data set: Antiviral activity against HIV1 Bal infected in PBMCs assessed as reduction in viral replication measured after 7 days post infection. The data set is classed as functional, organism-based. The note with it: Human immunodeficiency virus 1, Bal, PBMC, 168 h.
Data set [9] is described as follows: Cytotoxicity against human PBMCs. Format: toxicity, cell-based, PBMC. The note with it: read-out: TC50 (the source's name).
Data set [10] has as its system Human immunodeficiency virus 1. Description: Antiviral activity against HIV-1 NL4-3 infected in HEK293T cells cotransfected with Vif and hA3G-HA assessed as fold increase in A3G-HA level at 10 uM measured after 36 hrs by Western blotting analysis. Format: functional. In general terms: A western blot detects proteins with antibodies after separation by electrophoresis.

Data set [11] relates to Human immunodeficiency virus 1. Description: Antiviral activity against HIV-1 NL4-3 infected in HEK293T cells cotransfected with VSVG and hA3G-HA assessed as reduction in viral replication preincubated for 36 hrs followed by SubT1 cells infection for 48 hrs by luciferase based assay. Format: functional, organism-based. The conditions noted are these: Human immunodeficiency virus 1, NL4-3, HEK-293T.

The test system of data set [12] is Human immunodeficiency virus 1. Description: Antiviral activity against HIV1 infected in CEM cells assessed as reduction in viral replication measured on day 7 postinfection by ELISA. The note with it: Human immunodeficiency virus 1, CCRF-CEM, 168 h. Format: functional, organism-based.
Data set [13] in a line: Inhibition of HIV1 GST-tagged Vif (1 to 94 residues) to biotinylated-A3G (110 to 148 residues) (unknown origin) protein-protein interaction by TR-FRET assay.
In data set [14] the test system is Human immunodeficiency virus 1. Nature of the data set: Antiviral activity against HIV-1 Bal infected in PBMCs. Format: functional, organism-based. The conditions noted are these: Human immunodeficiency virus 1, Bal, PBMC.
Data set [15] deals with Virion infectivity factor (Human immunodeficiency virus type 1 group M subtype B (isolate NY5)(HIV-1), UniProt P12504). Description: Inhibition of HIV1 Vif. On the set-up: species or system Human immunodeficiency virus 1.
Virion infectivity factor, sequence (P12504 1-150 limits assumed): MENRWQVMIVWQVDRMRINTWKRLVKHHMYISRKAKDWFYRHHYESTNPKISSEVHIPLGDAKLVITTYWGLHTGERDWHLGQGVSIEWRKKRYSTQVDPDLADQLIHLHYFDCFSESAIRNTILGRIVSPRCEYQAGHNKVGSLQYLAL
Virion infectivity factor, sequence (P12504 151-192 limits assumed): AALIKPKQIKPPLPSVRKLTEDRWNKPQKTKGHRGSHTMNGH
Data set [16] concerns Human immunodeficiency virus 1. Description: Antiviral activity against HIV1 infected in H9 cells assessed as reduction in viral replication measured after 4 days post infection. The note with it: Human immunodeficiency virus 1, H9, 96 h. The data set is classed as functional, organism-based.
Data set [17] concerns Human immunodeficiency virus 1. Description: Antiviral activity against HIV1 infected in HEK293T cells cotransfected with pNL4-3 plus A3G vector assessed as reduction in viral replication measured after 48 hrs post transfection by MAGI assay. Format: functional, organism-based. The conditions noted are these: Human immunodeficiency virus 1, HEK-293T.
The subject of the next data set is HEK293T. Nature of the data set: Inhibition of HIV1 Vif expressed in HEK293T cells to cul5 (unknown origin) protein-protein interaction. The data set is classed as cell-based.
Data set [18] can be described thus: Cytotoxicity against HEK293T cells. The data set is classed as toxicity, cell-based, HEK-293T. The conditions noted are these: human.

Turning to `CNc1cc(C(=O)Nc2ccc(Cl)cc2)ccc1OC`, the half-inhibitory concentration (IC50) in the data set with Hepatitis B virus [1] was 3300 nM; in the data set on Hepatitis B virus [2], 1990 nM.

Turning to `CCCCCCCCCCCCCCCCCCCCCCC(=O)O[C@@H]1[C@@H](C)[C@@]2(O)[C@@H](C=C(COC(C)=O)C[C@]3(O)C(=O)C(C)=C[C@@H]23)[C@@H]2C(C)(C)[C@]12O`, the IC50 in [3], in data set [4], in [5] and in data set [6] was 100 nM throughout.

`COc1ccc(C(=O)Oc2cc(OC)c(OC)c(OC)c2)cc1NC(=O)C(C)Br` (stereo not drawn) displayed a concentration for half-maximal inhibition (IC50) in data set [7] of 17 nM.

Consider `COc1ccc(C(=O)Nc2cc(OC)c(OC)c(OC)c2)cc1NC(=O)C(C)Br` (stereo not drawn), for which the concentration for half-maximal inhibition (IC50) in data set [7] stood at 17 nM.

On to `COc1cc(-c2ccc(Nc3ccccc3C(=O)O)c(OC)c2)ccc1Nc1ccccc1C(=O)O`, for which the IC50 in data set [8] amounted to 1370 nM. For the same compound, the CC50 in data set [9] is greater than 100000 nM.

Regarding `Fc1ccc(OCC(Cn2ccnc2)c2ccc(Cl)cc2Cl)cc1` (stereo not drawn), the “fold change (FC)” value in data set [10] amounted to 1.7. In data set [11], the IC50 came out at 8630 nM.

Turning to `CC(C)(C)OC(=O)NCCCC[C@@H](NC(=O)OCc1ccccc1)C(=O)Oc1ccc([N+](=O)[O-])cc1`, the IC50 in data set [12] was 8160 nM.

With `C/C(=C/C(=O)c1cccnc1)Nc1ccc(O)cc1`, the 50% inhibitory concentration (IC50) was determined as 2180 nM in [13], 4200 nM in data set [14] and 8400 nM in data set [8]. For the same compound, in data set [9], the CC50 was greater than 100000 nM.

With `COc1ccccc1NC(=O)c1ccccc1Sc1ccc([N+](=O)[O-])cc1`, half-maximal inhibition in [15] (IC50) was put at 6000 nM.

In the case of `N#C/C(=C\c1ccc(Br)nc1)c1nc2ccccc2[nH]1`, the IC50 in [16] is 1010 nM.

Turning to `CCOC(=O)c1cc(C(=O)c2ccc3ccccc3c2)n2ccc(C(=O)c3ccccc3)cc12`, in data set [17], the half-maximal inhibitory concentration (IC50) came to 25000 nM.

On to `c1ccc(CN(CCN(Cc2ccccn2)Cc2ccccn2)Cc2ccccn2)nc1`, for which the inhibition entry in the data set with HEK293T was “Active”.

Regarding `CCCCn1c(SCc2c(C)noc2C)nc2cc(S(N)(=O)=O)ccc21`, half-maximal inhibition in [18] (IC50) required 30000 nM.

As for `Cc1noc(C)c1CSc1nc2ccccc2n1-c1ccccc1`, the IC50 in data set [18] was found to be 30000 nM.

Usually IC50 stands for the concentration that inhibits the measured activity by half.

Source of the values: ChEMBL document CHEMBL5385879, “Various strategies for developing APOBEC3G protectors to circumvent human immunodeficiency virus type 1” (Eur J Med Chem, 2023).
